{"source": "patent US20100234390A1", "about": "“NOVEL COMPOUND AND THEIR USE” (priority 2007, published 2010)", "assay_in_all_cases": "Agar dilution MIC", "conditions_in_all_cases": "35° C., 16-20 hours", "key": {"E. faecalis MRO 04205": {"tested_on": "E. faecalis MRO 04205", "type": "cell-based, Enterococcus faecalis", "how_it_was_run": "(§1)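 Compounds in DMSO were two-fold serially diluted into molten Mueller Hinton agar. Plates were inoculated with 0.5 McFarland suspensions diluted 1:10 in saline (1.5×10^7 CFU/mL). MIC was read after 16–20 h at 35 °C in ambient air.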"}, "E. faecalis ATCC 51299": {"tested_on": "E. faecalis ATCC 51299", "type": "cell-based, Enterococcus faecalis", "how_it_was_run": "as §1"}, "E. faecalis ATCC 29212": {"tested_on": "E. faecalis ATCC 29212", "type": "cell-based, Enterococcus faecalis", "how_it_was_run": "as §1"}, "E. faecalis MRO 04050": {"tested_on": "E. faecalis MRO 04050", "type": "cell-based, Enterococcus faecalis", "how_it_was_run": "as §1"}, "E. faecalis MRO 04035": {"tested_on": "E. faecalis MRO 04035", "type": "cell-based, Enterococcus faecalis", "how_it_was_run": "as §1"}, "S. epidermidis MRO 02002": {"tested_on": "S. epidermidis MRO 02002", "type": "cell-based", "how_it_was_run": "as §1"}, "[1]": {"tested_on": "S. saprophyticus MRO 02003", "type": "cell-based", "how_it_was_run": "as §1"}, "[2]": {"tested_on": "S. haemolyticus MRO 02064", "type": "cell-based", "how_it_was_run": "as §1"}, "[3]": {"tested_on": "S. epidermidis MRO 002046", "type": "cell-based", "how_it_was_run": "as §1"}, "S. epidermidis MRO 02095": {"tested_on": "S. epidermidis MRO 02095", "type": "cell-based", "how_it_was_run": "as §1"}, "S. epidermidis MRO 02045": {"tested_on": "S. epidermidis MRO 02045", "type": "cell-based", "how_it_was_run": "as §1"}, "[4]": {"tested_on": "M. catarrhalis ATCC 43627", "type": "cell-based, Moraxella catarrhalis", "how_it_was_run": "as §1"}, "[5]": {"tested_on": "M. catarrhalis ATCC 43617", "type": "cell-based, Moraxella catarrhalis", "how_it_was_run": "as §1"}, "[6]": {"tested_on": "M. catarrhalis ATCC 43628", "type": "cell-based, Moraxella catarrhalis", "how_it_was_run": "as §1"}, "S. aureus MRO 00048": {"tested_on": "S. aureus MRO 00048", "type": "cell-based, Staphylococcus aureus", "how_it_was_run": "as §1"}, "S. aureus ATCC 43300": {"tested_on": "S. aureus ATCC 43300", "type": "cell-based, Staphylococcus aureus", "how_it_was_run": "as §1"}, "S. aureus MRO 0001": {"tested_on": "S. aureus MRO 0001", "type": "cell-based, Staphylococcus aureus", "how_it_was_run": "as §1"}, "S. aureus MRO 00013": {"tested_on": "S. aureus MRO 00013", "type": "cell-based, Staphylococcus aureus", "how_it_was_run": "as §1"}, "S. aureus ATCC 29213": {"tested_on": "S. aureus ATCC 29213", "type": "cell-based, Staphylococcus aureus", "how_it_was_run": "as §1"}, "S. aureus MRO 00030": {"tested_on": "S. aureus MRO 00030", "type": "cell-based, Staphylococcus aureus", "how_it_was_run": "as §1"}, "S. aureus MRO 0003": {"tested_on": "S. aureus MRO 0003", "type": "cell-based, Staphylococcus aureus", "how_it_was_run": "as §1"}, "S. aureus MRO 00055": {"tested_on": "S. aureus MRO 00055", "type": "cell-based, Staphylococcus aureus", "how_it_was_run": "as §1"}, "S. aureus MRO 002053": {"tested_on": "S. aureus MRO 002053", "type": "cell-based, Staphylococcus aureus", "how_it_was_run": "as §1"}, "S. aureus MRO 00059": {"tested_on": "S. aureus MRO 00059", "type": "cell-based, Staphylococcus aureus", "how_it_was_run": "as §1"}, "E. faecium MRO 04038": {"tested_on": "E. faecium MRO 04038", "type": "cell-based, Enterococcus faecium", "how_it_was_run": "as §1"}, "E. faecium MRO 04037": {"tested_on": "E. faecium MRO 04037", "type": "cell-based, Enterococcus faecium", "how_it_was_run": "as §1"}, "E. faecium MRO 04198": {"tested_on": "E. faecium MRO 04198", "type": "cell-based, Enterococcus faecium", "how_it_was_run": "as §1"}, "E. faecium ATCC 700221": {"tested_on": "E. faecium ATCC 700221", "type": "cell-based, Enterococcus faecium", "how_it_was_run": "as §1"}}, "data": [{"smiles": "COC(=S)NC[C@H]1CN(c2ccc(N3CCN(C(=S)n4ccnc4)CC3)c(F)c2)C(=O)O1", "note": "[Example 76, (S)—O-Methyl(3-(4-(4-(1H-imidazole-1-carbonothioyl)piperazin-1-yl)-3-fluorophenyl)-2-oxooxazolidin-5-yl)methylcarbamothioate]", "values": [{"measurement": "Antimicrobial Screening (MIC)", "setting": "E. faecalis MRO 04205", "result": 0.25, "unit": "µg/mL"}, {"measurement": "Antimicrobial Screening (MIC)", "setting": "E. faecalis ATCC 51299", "result": 0.25, "unit": "µg/mL"}, {"measurement": "Antimicrobial Screening (MIC)", "setting": "E. faecalis ATCC 29212", "result": 0.25, "unit": "µg/mL"}, {"measurement": "Antimicrobial Screening (MIC)", "setting": "E. faecalis MRO 04050", "result": 0.25, "unit": "µg/mL"}, {"measurement": "Antimicrobial Screening (MIC)", "setting": "E. faecalis MRO 04035", "result": 0.25, "unit": "µg/mL"}, {"measurement": "Antimicrobial Screening (MIC)", "setting": "S. epidermidis MRO 02002", "result": 0.25, "unit": "µg/mL"}, {"measurement": "Antimicrobial Screening (MIC)", "setting": "[1]", "result": 0.5, "unit": "µg/mL"}, {"measurement": "Antimicrobial Screening (MIC)", "setting": "[2]", "result": 0.25, "unit": "µg/mL"}, {"measurement": "Antimicrobial Screening (MIC)", "setting": "[3]", "result": 0.25, "unit": "µg/mL"}, {"measurement": "Antimicrobial Screening (MIC)", "setting": "S. epidermidis MRO 02095", "result": 0.25, "unit": "µg/mL"}, {"measurement": "Antimicrobial Screening (MIC)", "setting": "S. epidermidis MRO 02045", "result": 0.25, "unit": "µg/mL"}, {"measurement": "Antimicrobial Screening (MIC)", "setting": "[4]", "result": 1, "unit": "µg/mL"}, {"measurement": "Antimicrobial Screening (MIC)", "setting": "[5]", "result": 1, "unit": "µg/mL"}, {"measurement": "Antimicrobial Screening (MIC)", "setting": "[6]", "result": 1, "unit": "µg/mL"}, {"measurement": "Antimicrobial Screening (MIC)", "setting": "S. aureus MRO 00048", "result": 0.25, "unit": "µg/mL"}, {"measurement": "Antimicrobial Screening (MIC)", "setting": "S. aureus ATCC 43300", "result": 0.25, "unit": "µg/mL"}, {"measurement": "Antimicrobial Screening (MIC)", "setting": "S. aureus MRO 0001", "result": 0.5, "unit": "µg/mL"}, {"measurement": "Antimicrobial Screening (MIC)", "setting": "S. aureus MRO 00013", "result": 0.5, "unit": "µg/mL"}, {"measurement": "Antimicrobial Screening (MIC)", "setting": "S. aureus ATCC 29213", "result": 0.5, "unit": "µg/mL"}, {"measurement": "Antimicrobial Screening (MIC)", "setting": "S. aureus MRO 00030", "result": 0.25, "unit": "µg/mL"}, {"measurement": "Antimicrobial Screening (MIC)", "setting": "S. aureus MRO 0003", "result": 0.5, "unit": "µg/mL"}, {"measurement": "Antimicrobial Screening (MIC)", "setting": "S. aureus MRO 00055", "result": 0.5, "unit": "µg/mL"}, {"measurement": "Antimicrobial Screening (MIC)", "setting": "S. aureus MRO 002053", "result": 0.25, "unit": "µg/mL"}, {"measurement": "Antimicrobial Screening (MIC)", "setting": "S. aureus MRO 00059", "result": 0.25, "unit": "µg/mL"}, {"measurement": "Antimicrobial Screening (MIC)", "setting": "E. faecium MRO 04038", "result": 0.25, "unit": "µg/mL"}, {"measurement": "Antimicrobial Screening (MIC)", "setting": "E. faecium MRO 04037", "result": 0.25, "unit": "µg/mL"}, {"measurement": "Antimicrobial Screening (MIC)", "setting": "E. faecium MRO 04198", "result": 0.25, "unit": "µg/mL"}, {"measurement": "Antimicrobial Screening (MIC)", "setting": "E. faecium ATCC 700221", "result": 0.25, "unit": "µg/mL"}]}]}
